Results: PMC8136953 (Veterinary Medicine and Science, 2020)
“And” between values parts separate entries of the source, which are not always exact repeats. Identical values can stand only once. Like-named read-outs stand apart in the source and are kept apart here.

Tests used:
[1] = 0‰, cited from earlier work; for WT: MO, 13 °C
[2] = cited from earlier work
[3] = set-up: method as in Table 4; conditions: after dietary delivery, different environmental conditions; ref Table 4; cited from earlier work
[4] = Residue depletion in muscle plus skin and withdrawal times after multiple oral dosing; type: in vivo, European seabass Dicentrarchus labrax; conditions: 10 mg kg^−1 day^−1 for 7 days, 24°C, mean ± SD
Experimental: Briefly, muscle plus skin samples were sheared, and subsequently 2 g of ground sample was weighed into a 50 ml centrifuge tube. Ten ml of ethyl acetate were added and the mixture was homogenized with an IKA Ultra‐Turrax T25 Disperser (IKA®‐Werke GmbH & Co. KG, Staufen, Germany) for 30 s at […]. The mixture was agitated for 20 min and then was centrifuged at 3,500 rpm/min for 10 min at 5°C. […] The combined extract was then evaporated to dryness at 45°C under nitrogen stream. Two milliliter of hexane and 1 ml of mobile phase solution were added in the residue. After gentle agitation for 5 min, the mixture was centrifuged (2,150 g for 5 min). The upper layer (hexane) was discarded and the de‐fatting step was repeated. The bottom layer (1 ml) was filtered (0.22 μm nylon filter) and then was subjected to HPLC analysis.
The flow rate was 1.0 ml/min.
Withdrawal period was determined at the time when the upper one‐sided 95% tolerance limit for the residue was below the MRL with 95% confidence.

[5] = Plasma pharmacokinetics of FLO after a single dietary administration
Experimental: Apparently healthy European seabass averaging about 100 ± 12 g were obtained from a local fish farm (Selonda aquaculture S.A) and distributed in two cages (1 m^3) located within a 50 m^3 cement tank (85 fish/cage). Water was supplied by open flow and oxygen was provided continuously by bubbling air. The water temperature and salinity were 24 ± 1°C and 38‰, respectively. Fish were allowed to acclimate for 7 days prior to experimentation and fed a drug‐free commercial diet at 1.5% body weight (B.W.).
During the trial, the experimental diet was stored at 4°C and was left to obtain ambient temperature before delivery.
Sampling of fish was performed at predetermined time points during and post treatment (Figure 1) after anesthetization with clove oil (40 mg/L). […] At each sampling point, 10 fish were killed by a blow to the head and tissue samples were obtained. Approximately, 2 ml of blood was drawn with a needle (Microlance 23G 11/4 0.6 × 30; Becton Dickinson, Zaragoza, Spain) from the caudal vein at selected time points during treatment and transferred into heparinised test tubes. Plasma was separated from blood samples by centrifugation at 20,160 g for 10 min at 4°C. Moreover for the withdrawal study, muscle plus skin (approximately 5 g) were taken from the anterior dorsal region on days 1, 2, 3, 4 and 6 post treatment. All prepared tissue samples were immediately frozen and stored at −20°C until analysis.
Briefly, 1 ml of plasma sample was placed in a 10 ml polypropylene centrifuge tube with 500 μl of acetonitrile:water (35:65, v/v). […] The homogenised samples were centrifuged (8,000 g for 10 min) and the supernatant was transferred to a 15 ml polypropylene centrifuge tube. The extraction step was repeated twice. The combined extract was then evaporated to dryness at 40°C under a gentle stream of nitrogen. The residue was reconstituted by 1 ml of mobile phase solution. Five milliliter of hexane were added into the tube and after mixing it was subjected to centrifugation for 5 min at 2,150 g prior to the removal of the hexane layer. The afore‐mentioned de‐fatting step was also repeated twice. The water‐based phase was filtered using 0.22 μm nylon filter and the filtrate (200 μl) was then analysed by HPLC.
The column temperature was maintained at 30°C and the injected volume was 200 μl. As a mobile phase, (A) an aqueous solution of NaH2PO4 (0.01 M) containing 0.005 M sodium dodecyl sulphate and 0.1% triethylamine (pH 4.8 adjusted with 85% phosphoric acid) and (B) acetonitrile were used (A/B, 65:35, v/v). The flow rate was 1.0 ml/min.
The area under the concentration–time curve (AUC0‐∞) was determined using trapezoidal method and was extrapolated to infinity.

[6] = cited from earlier work; for Primary route of excretion of FLO and its metabolites: single oral dose 10 mg/kg fish, ref Feng et al. (2008)
[7] = SO, 10 mg/kg fish, 140 g, 14–15 °C, ref Pourmolaie et al. (2015)
[8] = 0‰, MO, 10 × 10d mg/kg fish, 444–474 g, 25–30 °C, ref Kosoff et al. (2009)
[9] = 0‰, MO, 15 × 10d mg/kg fish, 100–500 g, 25 °C, ref Bowser et al. (2009)
[10] = 0‰, SO‐FA, 15 mg/kg fish, 500–700 g, 24 °C, ref Rairat et al. (2019)
[11] = 0‰, SO‐FA, 15 mg/kg fish, 500–700 g, 28 °C, ref Rairat et al. (2019)
[12] = 0‰, SO‐FA, 15 mg/kg fish, 500–700 g, 28 °C, ref Rairat et al. (2020)
[13] = 0‰, SO‐FA, 15 mg/kg fish, 500–700 g, 32 °C, ref Rairat et al. (2019)
[14] = 2‰, SO‐FA, 15 mg/kg fish, 500–700 g, 28 °C, ref Rairat et al. (2020)
[15] = 4‰, SO‐FA, 15 mg/kg fish, 500–700 g, 28 °C, ref Rairat et al. (2020)
[16] = 8‰, SO‐FA, 15 mg/kg fish, 500–700 g, 28 °C, ref Rairat et al. (2020)
[17] = 15‰, SO‐FA, 15 mg/kg fish, 500–700 g, 28 °C, ref Rairat et al. (2020)
[18] = European seabass (Dicentrarchus labrax), plasma, oral, 10 mg/kg
[19] = 0‰, SO‐FA, 10 mg/kg fish, 98 g, 22 °C, ref Feng and Jia (2009)

CS(=O)(=O)c1ccc([C@@H](O)[C@@H](CF)NC(=O)C(Cl)Cl)cc1 [FLO, florfenicol]
WT ([1]; 10 × 10d mg/kg fish, 220 g, ref Di Salvo et al. (2013)): 108 h
WT ([1]; 15–20 × 10d mg/kg fish, 126–617 g, ref Meinertz et al. (2014)): 360 h
C max [1, 7]: 6100 ng/mL
T max [1, 7]: 9 h
C max [2, 8]: 6500 to 6700 ng/mL
WT [2, 8]: 98 to 146 h
C max [2, 9]: 7100 to 15200 ng/mL
WT [2, 9]: >288 h
t 1/2b [2, 9]: 1.2 to 2.2 h
C max [2, 10]: 23100 ng/mL
T max [2, 10]: 1.4 h
t 1/2b [2, 10]: 12.4 h
C max [2, 11]: 16700 ng/mL
T max [2, 11]: 1.2 h
t 1/2b [2, 11]: 9.5 h
C max [2, 12]: 24000 ng/mL
T max [2, 12]: 0.8 h
t 1/2b [2, 12]: 11.3 h
C max [2, 13]: 16700 ng/mL
T max [2, 13]: 0.8 h
t 1/2b [2, 13]: 7.3 h
t 1/2b ([2]; 2‰, SO‐FA, 15 mg/kg fish, 500–700 g, 28 °C, ref Rairat et al. (2020), 15 mg/kg): 10.7 h
C max [2, 14]: 21600 ng/mL
T max [2, 14]: 0.9 h
C max [2, 15]: 21800 ng/mL
T max [2, 15]: 0.9 h
t 1/2b [2, 15]: 10.6 h
C max [2, 16]: 24400 ng/mL
T max [2, 16]: 0.9 h
t 1/2b [2, 16]: 10.2 h
t 1/2b ([2]; 15‰, SO‐FA, 15 mg/kg fish, 500–700 g, 28 °C, ref Rairat et al. (2020), 15 mg/kg): 8.9 h
C max [2, 17]: 22700 ng/mL
T max [2, 17]: 1.0 h
Maximum plasma concentration in other farmed fish species [3]: 1.8 to 55 µg/mL
Muscle plus skin FLO concentration ([4]; 144 hours after last dosing): below LOQ
concentration at 24 hours after last dosing ([4]; European seabass (Dicentrarchus labrax), in vivo, 24 hours after last dosing): 800 ± 1740 ng/g
concentration at 48 hours after last dosing ([4]; European seabass (Dicentrarchus labrax), in vivo, 48 hours after last dosing): 250 ± 640 ng/g
concentration at 72 hours after last dosing ([4]; European seabass (Dicentrarchus labrax), in vivo, 72 hours after last dosing): 40 ± 20 ng/g
concentration at 96 hours after last dosing ([4]; European seabass (Dicentrarchus labrax), in vivo, 96 hours after last dosing): 40 ± 10 ng/g
concentration at 144 hours after last dosing ([4]; European seabass (Dicentrarchus labrax), in vivo, 144 hours after last dosing): 30 ± 10 ng/g
Tmax [5, 18]: 4 h
concentration at 24 hr [5, 18]: 550 ng/mL
AUC ([5]; European seabass (Dicentrarchus labrax), plasma, po, 10 mg/kg): 34700 ng·h/mL
half-life ([5]; in vivo, po, 10 mg/kg): 13 h
AUC ([5]; plasma, po, 10 mg/kg): 34700 ng·h/mL
Maximum plasma concentration ([5]; single dietary administration 10 mg/kg, plasma, 24°C): 1.6 µg/mL and 1.64 µg/mL
C max [6, 19]: 4500 ng/mL
T max [6, 19]: 12 h
t 1/2b [6, 19]: 10.0 h
Primary route of excretion of FLO and its metabolites ([6]; freshwater hybrid tilapia): the bile duct
Primary route of excretion of FLO and its metabolites ([6]; seawater tilapia): mostly the gills
